Measurements reported in US9326539B2, “Compositions comprising dietary fat complexers and methods for their use” (Soho Flordis International Pty. Ltd., priority 2002, dated 2016).

Experiments:
[1] = in vitro study of vegetable oil, water and cyclodextrin: band of wax-like complex; assay type: physicochemical; details: vegetable oil 4 g, water 6 g, varying amounts of cyclodextrin (100-2,000 mg), centrifuged
Description: FIG. 9A-9C depicts the results of an in vitro study of vegetable oil (4 g), water (6 g) (with added food coloring for contrast) and varying amounts of (A) α-cyclodextrin (100-2,000 mg, right to left), (B) β-cyclodextrin or (C) γ-cyclodextrin. A band of “wax-like” material layered between the oil and aqueous phases is apparent in the tubes. […] Note the increasing size (right to left) of a white layer of un-reacted α-cyclodextrin in the bottom of the tubes. This material is displaced from solution by either the oil or the α-cyclodextrin-oil complex. These tubes were centrifuged in order to improve the definition of the layers. The “wax-like” complex is of such a consistency that all of the tubes except for the furthest two to the right can be inverted without leakage of the aqueous phase around the complex.
FIGS. 9A-9C depict the results of an in vitro study of vegetable oil (4 g), water (6 g) (with added food coloring for contrast) and varying amounts of (A) α-cyclodextrin (100-2,000 mg, right to left), (B) β-cyclodextrin or (C) γ-cyclodextrin. A band of “wax-like” material layered between the oil and aqueous phases is apparent in the tubes. […] Note the increasing size (right to left) of a white layer of un-reacted α-cyclodextrin in the bottom of the tubes. This material is displaced from solution by either the oil or the α-cyclodextrin-oil complex. These tubes were centrifuged in order to improve the definition of the layers. The “wax-like” complex is of such a consistency that all of the tubes in 9A except for the furthest two to the right can be inverted without leakage of the aqueous phase around the complex.
Thus one would not have expected α-cyclodextrin to complex triglyceride molecules because the molecules would not fit within the pore of the α α-cyclodextrin. […] The white substance in the bottom of the tubes is precipitated cyclodextrin.

[2] = Wistar rat feeding study: fecal fat content (total lipid of feces); assay type: in vivo, Wistar rats; details: collected feces, final three days
Text: (§1) The rats were housed as pairs for five weeks prior to being placed in individual metabolic cages for the sixth week of the study. All of the rats' feces were collected during the final three days of the study. At the end of the sixth week of the study period the rats were sacrificed by decapitation after a brief exposure to carbon dioxide gas. Trunk blood and the livers were collected from each animal. The rest of the body was eviscerated and all visible fat from the internal cavity was collected and weighed. The carcass was frozen for body composition analysis at a later date.
Total lipid determinations were performed on the collected feces using standard techniques Folch et al. J Biol. Chem 226: 497-509 (1957) incorporated by reference. […] On average this increase was approximately 25%. […] The latter observation was confirmed by visual inspection of the feces.

[3] = Wistar rat feeding study: plasma glucose, cholesterol, triglyceride, insulin resistance; assay type: in vivo, Wistar rats
Text: as §1
The plasma glucose, cholesterol and triglyceride concentrations were measured on all of the sacrificed animals using standard clinical laboratory techniques as may be found in Tietz Textbook of Clinical Chemistry, second edition. Burtis C A and Ashwood E R eds., W.B. Saunders Company A Division of Harcourt Brace & Company, 1994, Philadelphia incorporated herein by reference. (FIG. 5). On average the α-cyclodextrin appeared to have decreased the plasma total cholesterol levels by about 10%. This decrease was not statistically significant over this short study period; we expect that with longer feeding period, cholesterol levels will continue to decline. […] LDL cholesterol levels on all of the animals were too low to measure reliably since in rats the majority of the cholesterol is carried in the HDL-cholesterol fraction, and very little is carried in the LDL-cholesterol fraction.
Increased insulin resistance, elevated blood triglycerides and reduced HDL cholesterol levels are all the risk factors of Syndrome X. Insulin/glucose ratios as well as triglyceride/HDL ratios were calculated to provide indications about insulin resistance and risk of Syndrome X. (Szejtli J. Mater. Chem. 1997; 7:575-587 incorporated herein by reference). […] The reduction in triglyceride/HDL cholesterol ratios by α-cyclodextrin indicated a significant decrease in the risk for Syndrome X.

[4] = volunteers fed high fat breakfast: serum triglyceride levels; assay type: in vivo, human
Description: To determine the effect of α-cyclodextrin on triglyceride levels, eight volunteers were fed on two consecutive days a two-egg cheese (54 g) omelet and a milkshake containing a total of 47 g of fat after an overnight fast. On the first day the meal also contained approximately 5 g of α-cyclodextrin. Blood samples (10 ml) from each volunteer taken via an in-dwelling venous catheter immediately prior the meal (zero-time) and at 1, 2 and 3 hours after the meal was consumed and were assayed for serum triglyceride levels. The zero-time sample were used as the baseline to calculate the percentage change in blood serum triglyceride levels of the human volunteers at one, two and three hours. FIG. 7 illustrates the data collected from the volunteers.
FIG. 7 also contains data from three of the volunteers who had partaken in an earlier two-hour study with a smaller meal (denoted “*”).

[5] = two additional volunteers, about 2 g α-cyclodextrin per meal: cholesterol, LDL, cholesterol/HDL, triglycerides; assay type: in vivo, human
Description: α-cyclodextrin was also added to the diet of two additional volunteers. The α-cyclodextrin was added in a proportion such that each meal comprised about 2 g of α-cyclodextrin. Table 3 sets forth the effects of the α-cyclodextrin on reducing the levels of cholesterol, LDL, cholesterol/HDL ratio and serum triglycerides. It is of note that both of these volunteers, as well as the initial volunteer, had been and still were taking one of the statin pharmaceuticals for lowering their blood serum cholesterol. All three volunteers were taking different statins. In addition volunteer one was taking 3 g/d niacin which they reduced by 50% in the first two weeks of the study because of the unpleasant side effects of this medication.

insulin and leptin = assay: two additional volunteers: body weight, insulin and leptin levels (radioimmune assays); assay type: in vivo, human
Text: Blood samples were taken from the two additional subjects in Example 3 at various timepoints and assayed for insulin levels and leptin levels by the method of Linco Research (St. Charles, Mo.) using human insulin and leptin radioimmune assays.

[6] = volunteer one, 2.5 months, on statin and niacin
[7] = volunteer two, 6 months, on statin

OC[C@H]1O[C@@H]2O[C@H]3[C@H](O)[C@@H](O)[C@@H](O[C@H]4[C@H](O)[C@@H](O)[C@@H](O[C@H]5[C@H](O)[C@@H](O)[C@@H](O[C@H]6[C@H](O)[C@@H](O)[C@@H](O[C@H]7[C@H](O)[C@@H](O)[C@@H](O[C@H]1[C@H](O)[C@H]2O)O[C@@H]7CO)O[C@@H]6CO)O[C@@H]5CO)O[C@@H]4CO)O[C@@H]3CO [α-cyclodextrin]
band of wax-like material (complexed fat) between oil and aqueous phases [1]: maximum in the tube labeled 10% (400 mg α-cyclodextrin/4 g oil) | visual inspection of feces [2]: no indication of diarrhea | triglyceride/HDL cholesterol ratios ([3]; 6 week study): reduction | decrease of HDL cholesterol ([3]; at sacrifice): 6-8% | plasma glucose levels ([3]; at sacrifice): not affected significantly | reduction of plasma triglyceride levels ([3]; at sacrifice, p<0.05): about 30% | decrease of plasma total cholesterol ([3]; on average, at sacrifice, not statistically significant): about 10% | increase in serum triglyceride levels after meal ([4]; eight volunteers, meal with 47 g fat and approximately 5 g α-cyclodextrin, 1, 2 and 3 hours, p<0.08): less | change in triglyceride levels after meal ([4]; three volunteers, earlier two-hour study with smaller meal): less | Cholesterol (change) [5, 6]: −18.5% | Cholesterol/HDL (change) [5, 6]: −16.1% | LDL (change) [5, 6]: −25.6% | TG (change) [5, 6]: −22.2% | Cholesterol (change) [5, 7]: −10.2% | Cholesterol/HDL (change) [5, 7]: −8.8% | LDL (change) [5, 7]: −15.0 | TG (change) [5, 7]: −37.5% | Leptin (insulin and leptin; Subject 1, 55 days on diet, day 0: 3.6): 2.9 ng/mL | Insulin (insulin and leptin; Subject 1, 55 days on diet, day 0: 14): 13 uU/ml | Body weight (insulin and leptin; Subject 1, 55 days on diet, day 0: 89.09): 85.45 kg | Body weight (insulin and leptin; Subject 1, 55 days on diet, day 0: 196): 188 lb | Leptin (insulin and leptin; Subject 1, 112 days on diet, day 0: 3.6): 1.6 ng/mL | Insulin (insulin and leptin; Subject 1, 112 days on diet, day 0: 14): 8 uU/ml | Body weight (insulin and leptin; Subject 1, 112 days on diet, day 0: 89.09): 81.82 kg | Body weight (insulin and leptin; Subject 1, 112 days on diet, day 0: 196): 180 lb | Body weight % decrease (insulin and leptin; Subject 1, day 0 to day 112): 5.0% | Insulin % decrease (insulin and leptin; Subject 1, day 0 to day 112): 42.9% | Leptin % decrease (insulin and leptin; Subject 1, day 0 to day 112): 55.6% | Leptin (insulin and leptin; Subject 2, 28 days on diet, day 0: 6.1): 6.0 ng/mL | Insulin (insulin and leptin; Subject 2, 28 days on diet, day 0: 26): 28 uU/ml | Body weight (insulin and leptin; Subject 2, 28 days on diet, day 0: 105.45): 104.55 kg | Body weight (insulin and leptin; Subject 2, 28 days on diet, day 0: 232): 230 lb | Leptin (insulin and leptin; Subject 2, 62 days on diet, day 0: 6.1): 3.9 ng/mL | Insulin (insulin and leptin; Subject 2, 62 days on diet, day 0: 26): 16 uU/ml | Body weight (insulin and leptin; Subject 2, 62 days on diet, day 0: 105.45): 100.23 kg | Body weight (insulin and leptin; Subject 2, 62 days on diet, day 0: 232): 220.5 lb | Body weight % decrease (insulin and leptin; Subject 2, day 0 to day 62): 5.0% | Insulin % decrease (insulin and leptin; Subject 2, day 0 to day 62): 38.5% | Leptin % decrease (insulin and leptin; Subject 2, day 0 to day 62): 36%
